Format in all cases: functional
The test system of test [1] is Coptotermes formosanus. The experiment in a line: Antifeedant activity against Coptotermes formosanus placed on 1 % wt/wt compound treated filter paper assessed as filter paper consumption measured 21 days post compound exposure (reference value: 44 +/- 1.1 mg).
Test [2] relates to Coptotermes formosanus. The experiment in a line: Termiticidal activity against Coptotermes formosanus placed on 1 % wt/wt compound treated filter paper assessed as termite mortality measured 3 days post compound exposure.
The subject of test [3] is Coptotermes formosanus. The experiment in a line: Termiticidal activity against Coptotermes formosanus placed on 1 % wt/wt compound treated filter paper assessed as termite mortality measured 21 days post compound exposure.
The subject of test [4] is Coptotermes formosanus. The experiment in a line: Termiticidal activity against Coptotermes formosanus placed on 1 % wt/wt compound treated filter paper assessed as termite mortality measured 11 days post compound exposure.
In test [5] the test system is Coptotermes formosanus. The experiment in a line: Antifeedant activity against Coptotermes formosanus placed on 1 % wt/wt compound treated filter paper assessed as filter paper consumption measured 21 days post compound exposure (reference value: 85 +/- 15.1 mg).
Test [6] concerns Coptotermes formosanus. The experiment in a line: Antifeedant activity against Coptotermes formosanus placed on 1 % wt/wt compound treated filter paper assessed as filter paper consumption measured 21 days post compound exposure (reference value: 42.4 +/- 4.3 mg).

Broadly, the mortality is the percentage killed.

Consider `CNC1=C(Cl)C(=O)C(NC)=C(Cl)C1=O`, for which the Activity in the test on Coptotermes formosanus [1] is 7.8 mg. The mortality with Coptotermes formosanus [2] stood at 8.8%; with Coptotermes formosanus [3] it was 100%; in the test on Coptotermes formosanus [4] it was 90%.
For `COC1=C(Cl)C(=O)C(Cl)=C(OC)C1=O`, in that order: 37.8 mg, 0%, 2.5% and 0%.
For `COc1cccc(NC2=C(Cl)C(=O)C(Nc3cccc(OC)c3)=C(Cl)C2=O)c1`, in that order: 34.9 mg, 0%, 33.8% and 1.3%.
For `O=C1C(Cl)=C(Nc2cccc([N+](=O)[O-])c2)C(=O)C(Cl)=C1Nc1cccc([N+](=O)[O-])c1`, in that order: 18.3 mg, 0%, 90% and 75%.
Turning to `Cc1ccc(NC2=C(Cl)C(=O)C(Nc3ccc(C)cc3)=C(Cl)C2=O)cc1`, the Activity in the test on Coptotermes formosanus [1] was 19.1 mg. In addition, the mortality in the test on Coptotermes formosanus [2] is recorded as 6.3%; in the test on Coptotermes formosanus [3] it was 88.8%; in the test on Coptotermes formosanus [4] it was 52.5%.
Regarding `COc1ccc(NC2=C(Cl)C(=O)C(Nc3ccc(OC)cc3)=C(Cl)C2=O)cc1`, the Activity with Coptotermes formosanus [1] is 39.8 mg. Moreover, the mortality in the test on Coptotermes formosanus [2] amounted to 1.3%; with Coptotermes formosanus [3], 57.5%; in the test with Coptotermes formosanus [4] it was 3.8%.
For the molecule `COc1ccccc1NC1=C(Cl)C(=O)C(Nc2ccccc2OC)=C(Cl)C1=O`, in the test on Coptotermes formosanus [1], the Activity worked out at 40.1 mg. The mortality with Coptotermes formosanus [2] was found to be 1.3%; in the test on Coptotermes formosanus [3], 2.5%; in the test with Coptotermes formosanus [4] it was 0%.
On to `O=C1C(Cl)=C(Nc2ccc(Cl)cc2)C(=O)C(Cl)=C1Nc1ccc(Cl)cc1`, for which, in the test with Coptotermes formosanus [1], the Activity was found to be 22.7 mg. Besides, the mortality was 10% in the test on Coptotermes formosanus [2], 86.3% in the test with Coptotermes formosanus [3] and 62.5% in the test with Coptotermes formosanus [4].
In the same order, the values of `O=C1C(Cl)=C(Nc2ccccc2)C(=O)C(Cl)=C1Nc1ccccc1` are 36.3 mg, 0%, 60% and 40%.
Consider `Cc1ccc(C2=CC(=O)C=CC2=O)cc1`, for which the Activity in the test on Coptotermes formosanus [5] stood at 43.2 mg. The mortality in the test on Coptotermes formosanus [2] came out at 5%; in the test on Coptotermes formosanus [3], 38.3%; in the test on Coptotermes formosanus [4], 16.7%.
For the molecule `COC1=CC(=O)C(c2ccccc2)=CC1=O`, the mortality in the test on Coptotermes formosanus [2] is 3.3%; with Coptotermes formosanus [3], 31.7%; with Coptotermes formosanus [4], 6.7%. Further, the Activity in the test on Coptotermes formosanus [6] stood at 35.8 mg.
For the molecule `COC1=CC(=O)C(C[P+](c2ccccc2)(c2ccccc2)c2ccccc2)=CC1=O.[Cl-]`, the mortality is on record as 13.3% with Coptotermes formosanus [2], 98.3% in the test on Coptotermes formosanus [3] and 60% with Coptotermes formosanus [4]. Besides, the Activity in the test with Coptotermes formosanus [6] is on record as 5.3 mg.
As for `CC(C)(C)C1=CC(=O)C=CC1=O`, in the test on Coptotermes formosanus [5], the Activity came out at 60.4 mg. Moreover, the mortality in the test with Coptotermes formosanus [2] amounted to 13.3%; with Coptotermes formosanus [3], 28.3%; in the test with Coptotermes formosanus [4], 18.3%.
In the same order, the values of `CC1=CC(=O)C(C(C)(C)C)=CC1=O` are 68.3 mg, 5%, 26.7% and 21.7%.
Regarding `COC1=CC(=O)C=CC1=O`, the Activity in the test on Coptotermes formosanus [5] was 6.5 mg. Also, the figures for the mortality in the test on Coptotermes formosanus [2], in the test on Coptotermes formosanus [3] and in the test on Coptotermes formosanus [4] were 13.3%, 31.7% and 21.7%, respectively.
In the same order, the values of `COC1=CC(=O)C(OC)=CC1=O` are 107 mg, 3.3%, 8.3% and 6.7%.
In the same order, the values of `COC1=CC(=O)C=C(OC)C1=O` [2,6-DIMETHOXYQUINONE] are 75.9 mg, 0%, 3.3% and 3.3%.
As to `O=C1C=CC(=O)C=C1` [BENZOQUINONE], in the test with Coptotermes formosanus [5], the Activity is on record as 80.7 mg.
As to `COC1=C(OC)C(=O)C(C/C=C(\C)CCC=C(C)C)=C(C)C1=O` [Coenzyme Q2], the Activity with Coptotermes formosanus [5] is on record as 56.1 mg. Moreover, the mortality in the test with Coptotermes formosanus [2] was found to be 0%; with Coptotermes formosanus [3], 25%; in the test on Coptotermes formosanus [4] it was 15%.
For `COC1=C(OC)C(=O)C(C/C=C(\C)CC/C=C(\C)CC/C=C(\C)CCC=C(C)C)=C(C)C1=O` [Coenzyme Q4], in that order: 74.6 mg, 1.7%, 15% and 11.7%.
Take `COC1=C(OC)C(=O)C(C/C=C(\C)CC/C=C(\C)CC/C=C(\C)CC/C=C(\C)CC/C=C(\C)CCC=C(C)C)=C(C)C1=O` [Coenzyme Q6]: the Activity in the test on Coptotermes formosanus [5] was found to be 97.3 mg. The results for the mortality with Coptotermes formosanus [2], in the test with Coptotermes formosanus [3] and with Coptotermes formosanus [4] were 1.7%, 18.3% and 6.7%, respectively.
For `COC1=C(OC)C(=O)C(C/C=C(\C)CC/C=C(\C)CC/C=C(\C)CC/C=C(\C)CC/C=C(\C)CC/C=C(\C)CC/C=C(\C)CC/C=C(\C)CCC=C(C)C)=C(C)C1=O` [Coenzyme Q9], in that order: 63.9 mg, 15%, 15% and 15%.
In the same order, the values of `COC1=CC(=O)C(C)=CC1=O` [Coprinin] are 4.2 mg, 18.3%, 93.3% and 56.7%.
For `CC1=CC(=O)C=CC1=O` [Cresoquinone], in that order: 22.5 mg, 1.7%, 20% and 11.7%.
Regarding `CCCCCCCCCCC1=C(C)C(=O)C(OC)=C(OC)C1=O` [DECYLUBIQUINONE], the values for the mortality in the test with Coptotermes formosanus [2], with Coptotermes formosanus [3] and in the test with Coptotermes formosanus [4] were 13.3%, 100% and 75%, respectively. Further, in the test with Coptotermes formosanus [6], the Activity is 19.3 mg.
In the case of `CCCCCCCCCCCC1=C(O)C(=O)C=C(O)C1=O` [EMBELIN], in the test with Coptotermes formosanus [5], the Activity stood at 10.7 mg. For the same molecule, the mortality in the test with Coptotermes formosanus [2] is reported as 3.3%; with Coptotermes formosanus [3] it was 46.7%; in the test with Coptotermes formosanus [4] it was 18.3%.
Take `COC1=C(OC)C(=O)C(CCCCCCCCCCO)=C(C)C1=O` [IDEBENONE]: the mortality in the test with Coptotermes formosanus [2] is 0%; with Coptotermes formosanus [3], 38.3%; with Coptotermes formosanus [4], 0%. In the test on Coptotermes formosanus [6], the Activity came to 37.9 mg.
`COC1=C(OC)C(=O)C(C/C=C(\C)CC/C=C(\C)CC/C=C(\C)CC/C=C(\C)CC/C=C(\C)CC/C=C(\C)CC/C=C(\C)CC/C=C(\C)CC/C=C(\C)CCC=C(C)C)=C(C)C1=O` [UBIDECARENONE]: the Activity in the test with Coptotermes formosanus [5] was found to be 49.6 mg. Moreover, the figures for the mortality in the test with Coptotermes formosanus [2], in the test with Coptotermes formosanus [3] and in the test with Coptotermes formosanus [4] were 0%, 10% and 10%, respectively.
For `COC1=C(OC)C(=O)C(C)=CC1=O` [Ubiquinone Qo], the mortality in the test with Coptotermes formosanus [2] turned out to be 75%; in the test with Coptotermes formosanus [3], 90%; in the test with Coptotermes formosanus [4] it was 81.7%. In addition, the Activity in the test with Coptotermes formosanus [6] was 7.2 mg.

The values are drawn from ChEMBL document CHEMBL3045504, “Activity of 1,4-benzoquinones against formosan subterranean termites (Coptotermes formosanus)” (2008).
